Like-named read-outs stand apart in the source and are kept apart here.
Columns and labels:
HCT116 WT cells = assay: HCT116 WT (parent) cell line proliferation / cell viability (CellTiter-Glo, 6 days); format: cell-based; conditions: 6 days treatment
Outline: (§1)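 Isogenic HCT116 parent and MTAP-knockout cells in RPMI 1640 + 10% FBS, plated overnight, then exposed to compound for 6 days (37 °C, 5% CO2). Viability by CellTiter-Glo luminescence. Dilutions: 8–9 points from 1 or 10 μM (1:3), or 22 points from 10 or 50 μM (1:2); IC50 by 4-parameter or Hill −1 fit.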

HCT116 MTAP null cells = assay: HCT116 MTAP null cell line proliferation / cell viability (CellTiter-Glo, 6 days); format: cell-based; conditions: for IC50: HCT116 MTAP null cells, 6 days treatment, CellTiter-Glo cell viability, read-out: HCT-116 MTAP null IC50; for relative potency of the enantiomers (measured by IC50 in HCT116 MTAP null cell viability assay): comparison of the two enantiomers separated by SFC, used to assign (S)/(R)
Outline: as §1

IC50 (HCT116 WT cells; Homo sapiens, HCT-116, 144 h)	IC50 (HCT116 MTAP null cells; 144 h)	relative potency of the enantiomers (measured by IC50 in HCT116 MTAP null cell viability assay) (HCT116 MTAP null cells)	IC50 (HCT116 WT cells; read-out: HCT-116 WT IC50)	IC50 (HCT116 MTAP null cells)	Compound
1.36 µM	127 nM				CN(C(=O)c1ccc2nc(N)c3c(c2c1)COC3)C1COc2cc(C3=CCN(C(=O)OC(C)(C)C)CC3)ccc21 (racemic) [Example 614, 2-methyl-2-propanyl 4-((3R)-3-(((4-amino-1,3-dihydrofuro[3,4-c]quinolin-8-yl)carbonyl)(methyl)amino)-2,3-dihydro-1-benzofuran-6-yl)-3,6-dihydro-1(2H)-pyridinecarboxylate and 2-methyl-2-propanyl 4-((3S)-3-(((4-amino-1,3-dihydrofuro[3,4-c]quinolin-8-yl)carbonyl)(methyl)amino)-2,3-dihydro-1-benzofuran-6-yl)-3,6-dihydro-1(2H)-pyridinecarboxylate]
9.33 µM	530 nM				CN(C(=O)c1ccc2nc(N)c3cnn(C)c3c2c1)C1CCc2ccccc21 (racemic) [Example 681, 4-amino-N-((1R)-2,3-dihydro-1H-inden-1-yl)-N,1-dimethyl-1H-pyrazolo[4,3-c]quinoline-8-carboxamide and 4-amino-N-((1S)-2,3-dihydro-1H-inden-1-yl)-N,1-dimethyl-1H-pyrazolo[4,3-c]quinoline-8-carboxamide]
21 µM	297 nM				Cc1ccc2c(n1)CCC2N(C)C(=O)c1ccc2nc(N)c3cnn(C)c3c2c1 (racemic) [Example 682, 4-amino-N,1-dimethyl-N-((5R)-2-methyl-6,7-dihydro-5H-cyclopenta[b]pyridin-5-yl)-1H-pyrazolo[4,3-c]quinoline-8-carboxamide and 4-amino-N,1-dimethyl-N-((5S)-2-methyl-6,7-dihydro-5H-cyclopenta[b]pyridin-5-yl)-1H-pyrazolo[4,3-c]quinoline-8-carboxamide]
1.17 µM	24 nM	more potent			CN(C(=O)c1ccc2nc(N)c3c(c2c1)COC3)[C@@H]1COc2cc(C(F)(F)F)ccc21 (single isomer, unassigned) [Example 317]
10 µM	1360 nM	less potent			CN(C(=O)c1ccc2nc(N)c3c(c2c1)COC3)[C@H]1COc2cc(C(F)(F)F)ccc21 (single isomer, unassigned) [Example 318]
			2.21 µM	48 nM	CN(C(=O)c1ccc2nc(N)c3c(c2c1)COC3)[C@@H]1COc2cc([N+](=O)[O-])ccc21 (single isomer, unassigned) [Example 319]
			36.5 µM	3660 nM	CN(C(=O)c1ccc2nc(N)c3c(c2c1)COC3)[C@H]1COc2cc([N+](=O)[O-])ccc21 (single isomer, unassigned) [Example 320]
20.1 µM	2660 nM				[2H]C([2H])([2H])N(C(=O)c1ccc2nc(N)c3c(c2c1)COC3)[C@H]1COc2cc(C(F)(F)F)ccc21 (single isomer, unassigned) [Example 321]
1.39 µM	41 nM				[2H]C([2H])([2H])N(C(=O)c1ccc2nc(N)c3c(c2c1)COC3)[C@@H]1COc2cc(C(F)(F)F)ccc21 (single isomer, unassigned) [Example 322]
3.45 µM	76 nM				CN(C(=O)c1ccc2nc(N)c3c(c2c1)COC3)[C@@H]1COc2cc(S(C)(=O)=O)ccc21 (single isomer, unassigned) [Example 323]
50 µM	5320 nM				CN(C(=O)c1ccc2nc(N)c3c(c2c1)COC3)[C@H]1COc2cc(S(C)(=O)=O)ccc21 (single isomer, unassigned) [Example 324]
4.16 µM	68 nM				CN(C(=O)c1ccc2nc(N)c3c(c2c1)COC3)[C@@H]1COc2cc(C(F)(F)F)cc(F)c21 (single isomer, unassigned) [Example 325]
20.6 µM	1780 nM				CN(C(=O)c1ccc2nc(N)c3c(c2c1)COC3)[C@H]1COc2cc(C(F)(F)F)cc(F)c21 (single isomer, unassigned) [Example 326]
0.457 µM	11 nM				CN(C(=O)c1ccc2nc(N)c3c(c2c1)COC3)[C@@H]1COc2cc(S(F)(F)(F)(F)F)ccc21 (single isomer, unassigned) [Example 327]
10.1 µM	2160 nM				CN(C(=O)c1ccc2nc(N)c3c(c2c1)COC3)[C@H]1COc2cc(S(F)(F)(F)(F)F)ccc21 (single isomer, unassigned) [Example 328]
1.82 µM	46 nM				CN(C(=O)c1ccc2nc(N)c3c(c2c1)COC3)[C@@H]1COc2cc(Br)ccc21 (single isomer, unassigned) [Example 329]
22.9 µM	1610 nM				CN(C(=O)c1ccc2nc(N)c3c(c2c1)COC3)[C@H]1COc2cc(Br)ccc21 (single isomer, unassigned) [Example 330]
2.24 µM	26 nM				C[C@H]1OCc2c1c(N)nc1ccc(C(=O)N(C)[C@@H]3COc4cc(Br)ccc43)cc21 (single isomer, unassigned) [Example 331]
22.3 µM	920 nM				C[C@H]1OCc2c1c(N)nc1ccc(C(=O)N(C)[C@H]3COc4cc(Br)ccc43)cc21 (single isomer, unassigned) [Example 332]
8.48 µM	173 nM				CN(C(=O)c1cc2c3c(c(N)nc2cn1)COC3)[C@@H]1COc2cc(Cl)ccc21 (single isomer, unassigned) [Example 333]

IC50 (HCT116 WT cells; Homo sapiens, HCT-116, 144 h)	IC50 (HCT116 MTAP null cells; 144 h)	relative potency of the enantiomers (measured by IC50 in HCT116 MTAP null cell viability assay) (HCT116 MTAP null cells)	IC50 (HCT116 WT cells; read-out: HCT-116 WT IC50)	IC50 (HCT116 MTAP null cells)	Compound
50 µM	11900 nM				CN(C(=O)c1cc2c3c(c(N)nc2cn1)COC3)[C@H]1COc2cc(Cl)ccc21 (single isomer, unassigned) [Example 334]
10.9 µM	272 nM				CN(C(=O)c1cc2c3c(c(N)nc2cn1)COC3)[C@@H]1COc2nc(C(F)(F)F)ccc21 (single isomer, unassigned) [Example 335]
50 µM	11900 nM				CN(C(=O)c1cc2c3c(c(N)nc2cn1)COC3)[C@H]1COc2nc(C(F)(F)F)ccc21 (single isomer, unassigned) [Example 336]
2.09 µM	41 nM				[2H]C([2H])([2H])N(C(=O)c1cc2c3c(c(N)nc2cn1)COC3)[C@@H]1COc2cc(C(F)(F)F)ccc21 (single isomer, unassigned) [Example 337]
37.5 µM	4680 nM				[2H]C([2H])([2H])N(C(=O)c1cc2c3c(c(N)nc2cn1)COC3)[C@H]1COc2cc(C(F)(F)F)ccc21 (single isomer, unassigned) [Example 338]
8.78 µM	237 nM				CN(C(=O)c1cc2c3c(c(N)nc2cn1)COC3)[C@@H]1COc2cc(S(C)(=O)=O)ccc21 (single isomer, unassigned) [Example 339]
50 µM	7320 nM				CN(C(=O)c1cc2c3c(c(N)nc2cn1)COC3)[C@H]1COc2cc(S(C)(=O)=O)ccc21 (single isomer, unassigned) [Example 340]
6.24 µM	184 nM				CN(C(=O)c1cc2c3c(c(N)nc2cn1)COC3)[C@@H]1CCc2cc(OC(F)(F)F)ccc21 (single isomer, unassigned) [Example 341]
28 µM	4440 nM				CN(C(=O)c1cc2c3c(c(N)nc2cn1)COC3)[C@H]1CCc2cc(OC(F)(F)F)ccc21 (single isomer, unassigned) [Example 342]
0.581 µM	19 nM				CN(C(=O)c1cc2c3c(c(N)nc2cn1)COC3)[C@@H]1COc2cc(S(F)(F)(F)(F)F)ccc21 (single isomer, unassigned) [Example 343]
19.4 µM	1060 nM				CN(C(=O)c1cc2c3c(c(N)nc2cn1)COC3)[C@H]1COc2cc(S(F)(F)(F)(F)F)ccc21 (single isomer, unassigned) [Example 344]
5.44 µM	91 nM				CN(C(=O)c1cc2c3c(c(N)nc2cn1)COC3)[C@@H]1COc2cc(Br)ccc21 (single isomer, unassigned) [Example 345]
37 µM	6010 nM				CN(C(=O)c1cc2c3c(c(N)nc2cn1)COC3)[C@H]1COc2cc(Br)ccc21 (single isomer, unassigned) [Example 346]
3.22 µM	86 nM				CN(C(=O)c1cc2c3c(c(N)nc2cc1F)COC3)[C@@H]1COc2cc(Cl)ccc21 (single isomer, unassigned) [Example 347]
23.4 µM	1900 nM				CN(C(=O)c1cc2c3c(c(N)nc2cc1F)COC3)[C@H]1COc2cc(Cl)ccc21 (single isomer, unassigned) [Example 348]
2.24 µM	39 nM				CN(C(=O)c1cc2c3c(c(N)nc2cc1F)COC3)[C@@H]1CCc2nc(C(F)(F)F)ccc21 (single isomer, unassigned) [Example 349]
50 µM	3160 nM				CN(C(=O)c1cc2c3c(c(N)nc2cc1F)COC3)[C@H]1CCc2nc(C(F)(F)F)ccc21 (single isomer, unassigned) [Example 350]
2.85 µM	83 nM				CN(C(=O)c1cc2c3c(c(N)nc2cc1F)COC3)[C@@H]1COc2nc(C(F)(F)F)ccc21 (single isomer, unassigned) [Example 351]
50 µM	3250 nM				CN(C(=O)c1cc2c3c(c(N)nc2cc1F)COC3)[C@H]1COc2nc(C(F)(F)F)ccc21 (single isomer, unassigned) [Example 352]
1.38 µM	32 nM				CN(C(=O)c1cc2c3c(c(N)nc2cc1F)COC3)[C@@H]1COc2cc(S(C)(=O)=O)ccc21 (single isomer, unassigned) [Example 353]

Source: patent US20240124442A1, “TRICYCLIC-AMIDO-BICYCLIC PRMT5 INHIBITORS” (AMGEN INC., priority 2021, published 2024)
